{"source": "patent US10287267B2", "about": "“Isoquinolin-3-yl carboxamides and preparation and use thereof” (Samumed, LLC, priority 2016, dated 2019)", "key": {"[1]": {"molecular_target": "recombinant DYRK1A kinase (Homo sapiens (Human), UniProt Q13627)", "assay": "DYRK1A kinase assay (Ser/Thr 18 peptide Z-lyte FRET);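 for all read-outs here: Read-out is the coumarin to fluorescein emission ratio, referenced to unphosphorylated (0%) and phosphorylated (100%) Ser/Thr 18 peptide controls, values from dose-response curves by non-linear regression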", "format": "biochemical", "settings": "30 μM ATP, 1 h room temperature"}, "[2]": {"test_system": "α-smooth muscle actin (αSMA) positive LL29 cells", "assay": "Inhibition of fibrotic process: αSMA in TGF-β1 treated primary human fibroblasts from IPF patients;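 for all read-outs here: controls were TGF-β1 stimulated wells with DMSO vehicle (positive) and cells given DMSO alone (negative), cultured in F12 medium with 1% fetal bovine serum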", "format": "cell-based", "settings": "for EC50: Table 8, LL29 fibroblasts from IPF patients, TGF-β1 20 ng/mL, 4 days"}, "[3]": {"test_system": "SW480 colon carcinoma cells", "assay": "Cell viability assay (CellTiter-Glo)", "format": "cell-based, human", "settings": "for EC50: SW480 cells, CellTiter-Glo, four days incubation"}, "[4]": {"test_system": "Tau phosphorylation at Ser396 (pSer396)", "assay": "Tau phosphorylation assay (pSer396 ELISA / western blot) in SH-SY5Y cells;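 for all read-outs here: EC50 for reduction of Tau pSer396 in lysed cells, measured by colorimetric ELISA or chemiluminescent western blot, both using the same pSer396 antibody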", "format": "cell-based, human", "settings": "SH-SY5Y cells, overnight (16-18 h) exposure, read-out: pSer396 Tau EC50"}, "[5]": {"molecular_target": "recombinant GSK3β kinase (Homo sapiens (Human), UniProt P49841)", "sequence (P49841 whole entry)": "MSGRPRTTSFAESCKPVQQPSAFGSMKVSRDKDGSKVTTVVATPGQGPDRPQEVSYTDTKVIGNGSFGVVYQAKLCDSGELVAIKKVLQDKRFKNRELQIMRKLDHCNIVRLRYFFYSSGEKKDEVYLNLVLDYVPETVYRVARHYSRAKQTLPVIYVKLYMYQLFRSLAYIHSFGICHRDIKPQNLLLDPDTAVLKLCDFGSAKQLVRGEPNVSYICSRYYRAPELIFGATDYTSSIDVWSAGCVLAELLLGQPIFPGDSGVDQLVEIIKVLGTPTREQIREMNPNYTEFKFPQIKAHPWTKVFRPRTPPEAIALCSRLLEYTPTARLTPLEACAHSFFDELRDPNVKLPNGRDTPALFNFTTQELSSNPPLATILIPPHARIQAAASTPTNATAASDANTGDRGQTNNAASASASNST", "assay": "GSK3β kinase assay (Ser/Thr 09 peptide Z-lyte FRET);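 for all read-outs here: kinase activity read as coumarin to fluorescein emission ratio, 11-point threefold dilutions from 10 µM to 0.0003 µM in duplicate, unphosphorylated and phosphorylated peptide as 0% and 100% controls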", "format": "biochemical", "settings": "46 μM ATP, 1 h room temperature"}, "[6]": {"test_system": "Wnt pathway (Sp5-Luc reporter, TCF/LEF binding sites) in SW480 colon carcinoma cells", "assay": "Screening assay for Wnt activity: Sp5-Luc reporter gene assay;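 for all read-outs here: firefly luciferase luminescence read in stably transduced SW480 cells carrying the Sp5 promoter reporter with eight TCF/LEF sites, compounds given in 0.1% DMSO final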", "format": "cell-based, human", "settings": "Sp5-Luc reporter, SW480 cells, 36 to 48 hours", "protocol": "The screening assay for Wnt activity is described as follows.\nFollowing incubation, 15 μl of BriteLite Plus luminescence reagent (Perkin Elmer) was added to each well of the 384-well assay plates. The plates were placed on an orbital shaker for 2 min and then luminescence was quantified using the Envision (Perkin Elmer) plate reader."}, "[7]": {"test_system": "IL-6", "assay": "IL-6 inhibition in LPS-stimulated human peripheral blood mononuclear cells (HTRF);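 for all read-outs here: IL-6 detected by HTRF with an XL665- and Cryptate-labelled anti-IL-6 antibody pair, samples run in duplicate, EC50 obtained from a four-parameter Levenberg-Marquardt curve fit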", "format": "cell-based", "settings": "for EC50: Table 9, huPBMCs, LPS 50 ng/mL, 22 hours, dose-response starting from 10 μM; for inhibition at 10 µM: read-out: percent value in parentheses beside EC50 >10 μM", "protocol": "After 22 hour incubation, a mixture of anti-IL6 XL665 and anti-IL-6 Cryptate diluted in reconstitution buffer (Catalog #62IL6PEC, Cisbio Inc., Bedford, Mass.) was added to each well. […] All samples were processed in duplicate. […] EC50 was determined using software generated by Dotmatics Limited (Windhill Bishops Stortford Herts, UK) using the Levenberg-Marquardt 4 parameter fitting procedure with finite different gradients."}, "[8]": {"settings": "Homo sapiens, Fibroblast, 96 h, dose-response 10 μM to 0.94 nM"}}, "note": "Like-named read-outs stand apart in the source and are kept apart here."}
{"molecule": "Cn1ncc(-c2ccc3cnc(NC(=O)[C@H]4CCCN4)cc3c2)c1CN1CCCCC1", "note": "[Compound 803, (R)—N-(6-(1-Methyl-5-(piperidin-1-ylmethyl)-1H-pyrazol-4-yl)isoquinolin-3-yl)pyrrolidine-2-carboxamide]", "values": [{"measurement": "EC50", "setting": "[1]", "result": 12.6, "unit": "nM"}, {"measurement": "EC50", "setting": "[2]; [8]", "result": "> 10000", "unit": "nM"}, {"measurement": "inhibition at 10 µM", "setting": "[2]; Homo sapiens, Fibroblast, read-out: percent value in parentheses beside EC50 >10 μM", "result": 27.8, "unit": "%"}, {"measurement": "EC50", "setting": "[3]; Homo sapiens, 96 h", "result": 4530, "unit": "nM"}, {"measurement": "EC50", "setting": "[4]; Homo sapiens", "result": 3700, "unit": "nM"}, {"measurement": "EC50", "setting": "[5]", "result": 164, "unit": "nM"}, {"measurement": "EC50", "setting": "[6]; Homo sapiens", "result": 3550, "unit": "nM"}, {"measurement": "EC50", "setting": "[7]; Homo sapiens, PBMC", "result": 3320, "unit": "nM"}]}
{"molecule": "Cc1nnc(-c2ccc3cnc(NC(=O)CN4C[C@H]5C[C@@H]4CO5)cc3c2)s1", "note": "[Compound 960, 2-((1R,4R)-2-Oxa-5-azabicyclo[2.2.1]heptan-5-yl)-N-(6-(5-methyl-1,3,4-thiadiazol-2-yl)isoquinolin-3-yl)acetamide]", "values": [{"measurement": "EC50", "setting": "[1]", "result": 17.1, "unit": "nM"}, {"measurement": "EC50", "setting": "[2]; [8]", "result": 957, "unit": "nM"}, {"measurement": "EC50", "setting": "[3]; Homo sapiens, 96 h", "result": 6670, "unit": "nM"}, {"measurement": "EC50", "setting": "[4]; Homo sapiens", "result": 233, "unit": "nM"}, {"measurement": "EC50", "setting": "[5]", "result": 15, "unit": "nM"}, {"measurement": "EC50", "setting": "[6]; Homo sapiens", "result": 1660, "unit": "nM"}, {"measurement": "inhibition at 10 µM", "setting": "[7]; Homo sapiens, PBMC", "result": 8.2, "unit": "%"}, {"measurement": "EC50", "setting": "[7]; Homo sapiens, PBMC", "result": "> 10000", "unit": "nM"}]}
{"molecule": "CN1CC2(CC(C(=O)Nc3cc4cc(-c5cncs5)ccc4cn3)C2)C1", "note": "[Compound 700, 2-Methyl-N-(6-(thiazol-5-yl)isoquinolin-3-yl)-2-azaspiro[3.3]heptane-6-carboxamide]", "values": [{"measurement": "EC50", "setting": "[1]", "result": 2.2, "unit": "nM"}, {"measurement": "EC50", "setting": "[2]; [8]", "result": 275, "unit": "nM"}, {"measurement": "EC50", "setting": "[3]; Homo sapiens, 96 h", "result": 623, "unit": "nM"}, {"measurement": "EC50", "setting": "[4]; Homo sapiens", "result": 513, "unit": "nM"}, {"measurement": "EC50", "setting": "[5]", "result": 49, "unit": "nM"}, {"measurement": "EC50", "setting": "[6]; Homo sapiens", "result": 771, "unit": "nM"}, {"measurement": "EC50", "setting": "[7]; Homo sapiens, PBMC", "result": 380, "unit": "nM"}]}
{"molecule": "C[C@H](F)CN1CCC(C(=O)Nc2cc3cc(-c4cnn(C)c4)ccc3cn2)CC1", "note": "[Compound 311, (S)-1-(2-Fluoropropyl)-N-(6-(1-methyl-1H-pyrazol-4-yl)isoquinolin-3-yl) piperidine-4-carboxamide]", "values": [{"measurement": "EC50", "setting": "[1]", "result": 1.9, "unit": "nM"}, {"measurement": "EC50", "setting": "[2]; dose-response 10 μM to […]", "result": 76, "unit": "nM"}, {"measurement": "EC50", "setting": "[3]", "result": 751, "unit": "nM"}, {"measurement": "EC50", "setting": "[4]", "result": 163, "unit": "nM"}, {"measurement": "EC50", "setting": "[5]", "result": 20, "unit": "nM"}, {"measurement": "EC50", "setting": "[6]", "result": 578, "unit": "nM"}, {"measurement": "EC50", "setting": "[7]", "result": 396, "unit": "nM"}]}
{"molecule": "CN1CCC(C(=O)Nc2cc3cc(-c4cncs4)ccc3cn2)CC1", "note": "[Compound 718, 1-Methyl-N-(6-(thiazol-5-yl)isoquinolin-3-yl)piperidine-4-carboxamide]", "values": [{"measurement": "EC50", "setting": "[1]", "result": 1.3, "unit": "nM"}, {"measurement": "EC50", "setting": "[2]; [8]", "result": 168, "unit": "nM"}, {"measurement": "EC50", "setting": "[3]; Homo sapiens, 96 h", "result": 483, "unit": "nM"}, {"measurement": "EC50", "setting": "[4]; Homo sapiens", "result": 294, "unit": "nM"}, {"measurement": "EC50", "setting": "[5]", "result": 79, "unit": "nM"}, {"measurement": "EC50", "setting": "[6]; Homo sapiens", "result": 589, "unit": "nM"}, {"measurement": "EC50", "setting": "[7]; Homo sapiens, PBMC", "result": 406, "unit": "nM"}]}
{"molecule": "CN1CCC(C(=O)Nc2cc3cc(-c4cnc5n4CCNC5)ccc3cn2)CC1", "note": "[Compound 989, 1-Methyl-N-(6-(5,6,7,8-tetrahydroimidazo[1,2-a]pyrazin-3-yl)isoquinolin-3-yl)piperidine-4-carboxamide]", "values": [{"measurement": "EC50", "setting": "[1]", "result": 16.2, "unit": "nM"}, {"measurement": "EC50", "setting": "[2]; [8]", "result": 4420, "unit": "nM"}, {"measurement": "EC50", "setting": "[3]; Homo sapiens, 96 h", "result": "> 10000", "unit": "nM"}, {"measurement": "inhibition at 10 µM", "setting": "[3]; Homo sapiens, SW480, read-out: percent inhibition at 10 μM", "result": 36.4, "unit": "%"}, {"measurement": "EC50", "setting": "[4]; Homo sapiens", "result": "> 10000", "unit": "nM"}, {"measurement": "EC50", "setting": "[5]", "result": 298, "unit": "nM"}, {"measurement": "EC50", "setting": "[6]; Homo sapiens", "result": 4320, "unit": "nM"}, {"measurement": "inhibition at 10 µM", "setting": "[7]; Homo sapiens, PBMC", "result": 12.5, "unit": "%"}, {"measurement": "EC50", "setting": "[7]; Homo sapiens, PBMC", "result": "> 10000", "unit": "nM"}]}
{"molecule": "CN1CCN(CC(=O)Nc2cc3cc(-c4cnn(C)c4)ccc3cn2)CC1", "note": "[Compound 118, N-(6-(1-Methyl-1H-pyrazol-4-yl)isoquinolin-3-yl)-2-(4-methylpiperazin-1-yl)acetamide]", "values": [{"measurement": "EC50", "setting": "[1]", "result": 9.6, "unit": "nM"}, {"measurement": "EC50", "setting": "[2]; [8]", "result": 821, "unit": "nM"}, {"measurement": "EC50", "setting": "[3]; Homo sapiens, 96 h", "result": 5940, "unit": "nM"}, {"measurement": "EC50", "setting": "[4]; Homo sapiens", "result": 1200, "unit": "nM"}, {"measurement": "EC50", "setting": "[5]", "result": 79, "unit": "nM"}, {"measurement": "EC50", "setting": "[6]; Homo sapiens", "result": 3600, "unit": "nM"}, {"measurement": "EC50", "setting": "[7]; Homo sapiens, PBMC", "result": 3610, "unit": "nM"}]}
{"molecule": "Cn1cc(-c2ccc3cnc(NC(=O)[C@H]4CC[C@H](N)CC4)cc3c2)cn1", "note": "[Compound 365, trans-4-Amino-N-(6-(1-methyl-1H-pyrazol-4-yl)isoquinolin-3-yl) cyclohexane-1-carboxamide]", "values": [{"measurement": "EC50", "setting": "[1]", "result": 2.7, "unit": "nM"}, {"measurement": "EC50", "setting": "[2]; [8]", "result": 4800, "unit": "nM"}, {"measurement": "EC50", "setting": "[3]; Homo sapiens, 96 h", "result": 522, "unit": "nM"}, {"measurement": "EC50", "setting": "[4]; Homo sapiens", "result": 1200, "unit": "nM"}, {"measurement": "EC50", "setting": "[5]", "result": 52, "unit": "nM"}, {"measurement": "EC50", "setting": "[6]; Homo sapiens", "result": 381, "unit": "nM"}, {"measurement": "EC50", "setting": "[7]; Homo sapiens, PBMC", "result": 526, "unit": "nM"}]}
{"molecule": "CC(C)CN1CCC[C@@H](C(=O)Nc2cc3cc(-c4cnn(C)c4)ccc3cn2)C1", "note": "[Compound 113, (R)-1-Isobutyl-N-(6-(1-methyl-1H-pyrazol-4-yl)isoquinolin-3-yl)piperidine-3-carboxamide]", "values": [{"measurement": "EC50", "setting": "[1]", "result": 24.1, "unit": "nM"}, {"measurement": "EC50", "setting": "[2]; [8]", "result": 2110, "unit": "nM"}, {"measurement": "EC50", "setting": "[3]; Homo sapiens, 96 h", "result": "> 10000", "unit": "nM"}, {"measurement": "EC50", "setting": "[4]; Homo sapiens", "result": 3800, "unit": "nM"}, {"measurement": "EC50", "setting": "[5]", "result": 586, "unit": "nM"}, {"measurement": "EC50", "setting": "[6]; Homo sapiens", "result": "> 10000", "unit": "nM"}, {"measurement": "EC50", "setting": "[7]; Homo sapiens, PBMC", "result": 1920, "unit": "nM"}]}
